Laboratory results taken from the NIST ThermoML archive (doi:10.1016/j.fluid.2009.08.017).
± gives the expanded uncertainty stated by the source.

Test: activity coefficient (dimensionless); of the first substance listed, at infinite dilution; xn = mol fraction of the nth substance listed
Conditions: 101 kPa, Liquid, Chromatography, x1 = 0

Row | Structure (SMILES) | activity coefficient (298.15 K) | activity coefficient (308.15 K) | activity coefficient (318.15 K) | activity coefficient (328.15 K) | activity coefficient (338.15 K) | activity coefficient (348.15 K) | activity coefficient (358.15 K) | activity coefficient (368.15 K)
1 | c1ccccc1 [benzene] + CCCCCCOCn1cc[n+](C)c1.O=S(=O)([N-]S(=O)(=O)C(F)(F)F)C(F)(F)F | 0.802 ± 0.052 | 0.807 ± 0.052 | 0.812 ± 0.053 | 0.816 ± 0.053 | 0.82 ± 0.053 | 0.824 ± 0.053 | 0.827 ± 0.053 | 0.832 ± 0.054
2 | C1CCCCCCC1 [cyclooctane] + CCCCCCOCn1cc[n+](COCCCCCC)c1.O=S(=O)([N-]S(=O)(=O)C(F)(F)F)C(F)(F)F | 3.2 ± 0.22 | 3.06 ± 0.21 | 2.94 ± 0.2 | 2.82 ± 0.19 | 2.72 ± 0.19 | 2.63 ± 0.18 | 2.54 ± 0.17 | 2.47 ± 0.17
3 | CCCO [propan-1-ol] + CCCCCCOCn1cc[n+](COCCCCCC)c1.O=S(=O)([N-]S(=O)(=O)C(F)(F)F)C(F)(F)F | 1.31 ± 0.09 | 1.19 ± 0.08 | 1.09 ± 0.07 | 1 ± 0.063 | 0.929 ± 0.059 | 0.861 ± 0.055 | 0.803 ± 0.052 | 0.752 ± 0.049
4 | CCO [ethanol] + CCCCCCOCn1cc[n+](COCCCCCC)c1.O=S(=O)([N-]S(=O)(=O)C(F)(F)F)C(F)(F)F | 1.25 ± 0.08 | 1.14 ± 0.07 | 1.04 ± 0.065 | 0.958 ± 0.06 | 0.886 ± 0.056 | 0.824 ± 0.053 | 0.767 ± 0.05 | 0.719 ± 0.048
5 | CO [methanol] + CCCCCCOCn1cc[n+](C)c1.O=S(=O)([N-]S(=O)(=O)C(F)(F)F)C(F)(F)F | 1.36 ± 0.09 | 1.24 ± 0.08 | 1.13 ± 0.07 | 1.04 ± 0.07 | 0.959 ± 0.06 | 0.894 ± 0.057 | 0.832 ± 0.054 | 0.775 ± 0.051
6 | CCCCO [butan-1-ol] + CCCCCCOCn1cc[n+](C)c1.O=S(=O)([N-]S(=O)(=O)C(F)(F)F)C(F)(F)F | – | – | 1.74 ± 0.12 | 1.58 ± 0.1 | 1.45 ± 0.1 | 1.34 ± 0.09 | 1.24 ± 0.08 | 1.15 ± 0.07
7 | CO [methanol] + CCCCCCOCn1cc[n+](COCCCCCC)c1.O=S(=O)([N-]S(=O)(=O)C(F)(F)F)C(F)(F)F | 1.17 ± 0.07 | 1.06 ± 0.067 | 0.978 ± 0.061 | 0.9 ± 0.057 | 0.834 ± 0.054 | 0.776 ± 0.051 | 0.725 ± 0.048 | 0.681 ± 0.046
8 | C=CCCCC [hex-1-ene] + CCCCCCOCn1cc[n+](C)c1.O=S(=O)([N-]S(=O)(=O)C(F)(F)F)C(F)(F)F | 4.89 ± 0.33 | 4.72 ± 0.32 | 4.59 ± 0.31 | 4.46 ± 0.3 | 4.33 ± 0.29 | 4.23 ± 0.29 | 4.12 ± 0.28 | 4.03 ± 0.27
9 | Cc1ccc(C)cc1 [1,4-dimethylbenzene] + CCCCCCOCn1cc[n+](C)c1.O=S(=O)([N-]S(=O)(=O)C(F)(F)F)C(F)(F)F | – | – | 1.46 ± 0.096 | 1.47 ± 0.097 | 1.48 ± 0.097 | 1.49 ± 0.098 | 1.5 ± 0.098 | 1.5 ± 0.099
10 | CCOCC [diethyl ether] + CCCCCCOCn1cc[n+](COCCCCCC)c1.O=S(=O)([N-]S(=O)(=O)C(F)(F)F)C(F)(F)F | 0.811 ± 0.052 | 0.826 ± 0.053 | 0.839 ± 0.054 | 0.854 ± 0.055 | 0.867 ± 0.055 | 0.879 ± 0.056 | 0.89 ± 0.057 | 0.904 ± 0.057
11 | COC(C)(C)C [2-methoxy-2-methylpropane] + CCCCCCOCn1cc[n+](COCCCCCC)c1.O=S(=O)([N-]S(=O)(=O)C(F)(F)F)C(F)(F)F | 0.759 ± 0.05 | 0.78 ± 0.051 | 0.801 ± 0.052 | 0.821 ± 0.053 | 0.841 ± 0.054 | 0.859 ± 0.055 | 0.877 ± 0.056 | 0.896 ± 0.057
12 | CCCCCCC [heptane] + CCCCCCOCn1cc[n+](C)c1.O=S(=O)([N-]S(=O)(=O)C(F)(F)F)C(F)(F)F | 10.6 ± 0.7 | 10 ± 0.7 | 9.51 ± 0.65 | 9.07 ± 0.62 | 8.65 ± 0.59 | 8.28 ± 0.56 | 7.95 ± 0.54 | 7.66 ± 0.52
13 | CCCCCCC [heptane] + CCCCCCOCn1cc[n+](COCCCCCC)c1.O=S(=O)([N-]S(=O)(=O)C(F)(F)F)C(F)(F)F | 3.94 ± 0.27 | 3.81 ± 0.26 | 3.68 ± 0.25 | 3.57 ± 0.24 | 3.46 ± 0.24 | 3.36 ± 0.23 | 3.27 ± 0.22 | 3.19 ± 0.22
14 | O [water] + CCCCCCOCn1cc[n+](COCCCCCC)c1.O=S(=O)([N-]S(=O)(=O)C(F)(F)F)C(F)(F)F | 4.43 ± 0.3 | 3.8 ± 0.26 | 3.31 ± 0.23 | 2.93 ± 0.2 | 2.53 ± 0.17 | 2.24 ± 0.15 | 2.02 ± 0.14 | 1.83 ± 0.12
15 | C#CCCC [1-pentyne] + CCCCCCOCn1cc[n+](COCCCCCC)c1.O=S(=O)([N-]S(=O)(=O)C(F)(F)F)C(F)(F)F | 0.992 ± 0.062 | 0.997 ± 0.062 | 1 ± 0.063 | 1.01 ± 0.063 | 1.01 ± 0.063 | 1.02 ± 0.064 | 1.02 ± 0.064 | 1.02 ± 0.064
16 | C1CCCCCC1 [cycloheptane] + CCCCCCOCn1cc[n+](C)c1.O=S(=O)([N-]S(=O)(=O)C(F)(F)F)C(F)(F)F | 6.51 ± 0.44 | 6.15 ± 0.42 | 5.8 ± 0.4 | 5.49 ± 0.37 | 5.23 ± 0.36 | 5.02 ± 0.34 | 4.79 ± 0.33 | 4.6 ± 0.31
17 | C1CCCCC1 [cyclohexane] + CCCCCCOCn1cc[n+](C)c1.O=S(=O)([N-]S(=O)(=O)C(F)(F)F)C(F)(F)F | 5.44 ± 0.37 | 5.14 ± 0.35 | 4.87 ± 0.33 | 4.63 ± 0.32 | 4.43 ± 0.3 | 4.24 ± 0.29 | 4.07 ± 0.28 | 3.91 ± 0.27
18 | C1CCCC1 [cyclopentane] + CCCCCCOCn1cc[n+](COCCCCCC)c1.O=S(=O)([N-]S(=O)(=O)C(F)(F)F)C(F)(F)F | 1.84 ± 0.12 | 1.78 ± 0.12 | 1.74 ± 0.12 | 1.69 ± 0.11 | 1.65 ± 0.11 | 1.61 ± 0.11 | 1.57 ± 0.1 | 1.54 ± 0.1
19 | C#CCCCCCC [1-octyne] + CCCCCCOCn1cc[n+](C)c1.O=S(=O)([N-]S(=O)(=O)C(F)(F)F)C(F)(F)F | 3.15 ± 0.21 | 3.14 ± 0.21 | 3.13 ± 0.21 | 3.13 ± 0.21 | 3.12 ± 0.21 | 3.11 ± 0.21 | 3.11 ± 0.21 | 3.1 ± 0.21
